Structures can show the parent of a compound that is named as a salt. Where two headings read alike, the source gives them in different places.
Tests used:
[1] = Experimental: Polyoxyethylene stearyl ethers, 3 wt. %
Polyoxypropylene fatty alcohol ethers, 3 wt. %
Deionized water, 94 wt. %
Further, in all cases, unless otherwise noted, the tests were carried out at 37° C. and results were compared to penetration data for the same material in the oil/water emulsion base. Moreover, all percentages of composition components recited are, unless otherwise indicated, weight percent (wt. %) and are based upon the total weight of the composition.
The test method is carried out as follows:
A. Prior to testing, rats are routinely acclimated to the laboratory environment for seven days and gross observations are made to ensure good health of the animals to be tested.
B. Female Sprague Dawley rats (190-240 gm) are selected for testing and identified by cage label and ear tag number.
C. Diffusion Cell Preparation.
1. An O-ring is placed on a standard Franz Diffusion Cell. A stir bar is placed in the receptor compartment. Each cell is filled with approximately 4.5 ml sterile physiologic saline (receptor compartments are calibrated to contain 5.0 ml).
2. The jacketed diffusion cells are maintained at 37° C.±1° (or alternatively desired temperature) using an external water bath and a circulating pump.
D. Skin Section Preparation and Mounting
1. Test animals are sacrificed by intraperitoneal injection of 0.4 ml/100 gm. body weight sodium pentobarital (1 gm/ml).
2. The backs are lightly shaved using electric hair clippers.
3. A section of skin, measuring approximately 8 cm long by 7 cm wide, is removed from the back of each rat using a No. 20 scalpel assuring that the skin section is free from subcutaneous fat.
4. A piece of the skin section is mounted over an O-ring on the diffusion cell, epidermal side facing up. The donor compartment is placed on top of the skin section making a complete seal over the skin. A clamp is used to secure the skin section in place.
5. Air bubbles that collect under the skin are removed by inverting the diffusion cell and tapping it gently. The receptor compartment is filled with sterile physiologic saline to 5.0 ml.
E. Application of Test Materials
1. Test and control materials are applied to the skin using s syringe or spatula. The material is spread evenly and completely over the exposed skin surface using the tip of the syringe/spatula.
1. An HPLC carousel is loaded with microvials. Springs and inserts are placed into the microvials.
2. Receptor compartments are sampled at desired time intervals using a microliter (μl) syringe. The sample (approximately 160 μl) is placed into the insert. The microvial is sealed with a plastic cap.
3. When multiple sampling is required, the receptor compartment is replenished with sterile physiologic saline to maintain a 5.0 ml volume.
Samples are analyzed using standard analytical techniques. The presence of test material in the samples is indicative of transdermal penetration.

[2] = Pig skin (in vitro) transdermal penetration; type: in vitro ADME, Yucatan miniature pig; settings: 0.5% IMI in saturated aqueous TPL solution
Experimental: The test procedure is as described for rat skin studies with the exception that excised pig skin samples from Yucatan miniature pigs are utilized.
To address this issue, in vitro skin penetration of tripelennamine (TPL) in 2 saturated aqueous solutions, was measured using pig skin in accordance with the Pig Skin (in vitro) procedure earlier outlined. One solution contained 0.5% IMI. The other solution served as an aqueous control (buffered with NaOH to the same pH as the IMI containing solution).
Since all skin sections are dermatomed to 380 microns, h is a constant. In each composition of Table 5, the vehicle was saturated with the pharmacologic agent. Therefore, the "leaving tendency", or the thermodynamic activity of the pharmacologic agent in the vehicle, remained unchanged (K is the same for both compositions). this means that D must increase in order to explain the 3-fold increase in transdermal penetration. This is indicative of a true enhancement effect of topically applied IMI. The results of Table 5, substantiate that IMI acts as a true skin penetration enhancer. […] This may be one reason why use of a transdermal penetration enhancing amount of a selected imidazole or imidazole derivative of the present invention, in conjunction with a pharmacologically active agent whose transdermal penetration is capable of being enhanced, affords the advantageous enhancement of penetration achieved by the present invention.

[3] = 2% TPL in B with 0.5% imidazole derivative, Table 2, average of multiple determinations
[4] = multiple of average control determination of the same study, 2% TPL in B with 0.5% imidazole derivative, Table 2

OCc1c[nH]cn1 [4-HYD[…], 4-hydroxymethyl imidazole]
24 hour penetration of tripelennamine HCl (total micrograms base) [1, 3]: 224 micrograms base
Increase in penetration relative to control [1, 4]: 3.2

CC(C)n1ccnc1 [1-ISOPROPYL IMIDAZOLE]
24 hour penetration of tripelennamine HCl (total micrograms base) [1]: 527 micrograms base
Increase in penetration relative to control [1]: 2.9

c1c[nH]cn1 [IMIDAZOLE, imidazole]
24 hour penetration of tripelennamine HCl (total micrograms base) ([1]; 2% TPL in B + 0.01% imidazole): 208 micrograms base
24 hour penetration of tripelennamine HCl (total micrograms base) ([1]; 2% TPL in B + 0.1% imidazole): 413 micrograms base
24 hour penetration of tripelennamine HCl (total micrograms base) ([1]; 2% TPL in B + 1.0% imidazole): 662 micrograms base
TPL penetration increased as compared to the control ([1]; 2% TPL in B, imidazole up to 1.0%, Table 1): approximately 340%
Increase in penetration relative to control ([1]; multiple of average control determination, 2% TPL in B + 0.01% imidazole): 1.1
Increase in penetration relative to control ([1]; multiple of average control determination, 2% TPL in B + 0.1% imidazole): 2.1
Increase in penetration relative to control ([1]; multiple of average control determination, 2% TPL in B + 1.0% imidazole): 3.4
Increase in skin permeation of TPL [2]: 3 fold

CCCc1ncc[nH]1 [2-PROPYL IMIDAZOLE]
24 hour penetration of tripelennamine HCl (total micrograms base) [1]: 554 micrograms base
Increase in penetration relative to control [1]: 2.2

Cc1ncc[nH]1 [2-METHYL IMIDAZOLE]
24 hour penetration of tripelennamine HCl (total micrograms base) [1]: 615 micrograms base
Increase in penetration relative to control [1]: 2.6

NS(=O)(=O)c1cc2c(cc1Cl)NCNS2(=O)=O [HCTZ, HYDROCHLOROTHIAZIDE, reference compound]
24 hour penetration (total micrograms base) [1]: 1.7 micrograms base
Imidazole enhanced the transdermal penetration (fold) ([1]; 5% HCTZ with 1% imidazole, Table 3 Study IX): five

CCCCn1ccnc1 [1-BUTYL IMIDAZOLE]
24 hour penetration of tripelennamine HCl (total micrograms base) [1]: 497 micrograms base
Increase in penetration relative to control [1]: 2.1

O=C(/C=C/c1ccccc1)n1ccnc1 [N-TRANS-CINNAMOYL]
24 hour penetration of tripelennamine HCl (total micrograms base) [1]: 153 micrograms base
Increase in penetration relative to control [1]: 1.8

CCCCCCCCCCn1ccnc1 [1-DECYL IMIDAZOLE]
24 hour penetration of tripelennamine HCl (total micrograms base) [1]: 446 micrograms base
Increase in penetration relative to control [1]: 3.7

Cc1nc[nH]c1CO [4-(HYDROXYMETHYL) 5-METHYL IMIDAZOLE]
24 hour penetration of tripelennamine HCl (total micrograms base) [1]: 149 micrograms base
Increase in penetration relative to control [1]: 1.2

CC(C)NCC(O)c1cc(O)cc(O)c1 (centres unmarked) [MET, METAPROTERENOL SULFATE, reference compound]
24 hour penetration (total micrograms base) [1]: 47.6 micrograms base

Cn1cc[nH]c1=S [METHIMIDAZOLE, methimazole, reference compound]
24 hour penetration of tripelennamine HCl (total micrograms base) [1]: 301 micrograms base
Increase in penetration relative to control [1]: 3.5

CCCCCCCCCCCCn1ccnc1 [1-DODECYL IMIDAZOLE]
24 hour penetration of tripelennamine HCl (total micrograms base) [1]: 479 micrograms base
Increase in penetration relative to control [1]: 4.0

N[C@H](Cc1c[nH]cn1)C(=O)O [D-HISTIDINE, D-histidine]
24 hour penetration of tripelennamine HCl (total micrograms base) [1]: 197 micrograms base
Increase in penetration relative to control [1]: 2.8

1-cyanoethyl-2-phenylimidazole [1-CYANOETHYL-2-PHENYL IMIDAZOLE]
24 hour penetration of tripelennamine HCl (total micrograms base) [1, 3]: 310 micrograms base
Increase in penetration relative to control [1, 4]: 2.6

Cc1c[nH]cn1 [4-METHYL IMIDAZOLE]
24 hour penetration of tripelennamine HCl (total micrograms base) [1, 3]: 477 micrograms base
Increase in penetration relative to control [1, 4]: 3.9

c1ccc(-n2ccnc2)cc1 [1-PHENYL IMIDAZOLE]
24 hour penetration of tripelennamine HCl (total micrograms base) [1, 3]: 450 micrograms base
Increase in penetration relative to control [1, 4]: 1.8

Cn1ccnc1 [1-METHYL IMIDAZOLE]
24 hour penetration of tripelennamine HCl (total micrograms base) [1, 3]: 728 micrograms base
Increase in penetration relative to control [1, 4]: 3.0

CC(C)=CCCC(C)=CCn1ccnc1 [1-(3,7-dimethyl-2,6-octadienyl) imidazole]
24 hour penetration of tripelennamine HCl (total micrograms base) [1]: 479 micrograms base
Increase in penetration relative to control [1]: 2.6

Cc1ccc(/C(=C\CN2CCCC2)c2ccccn2)cc1 [TRP, TRIPROLIDINE HCL, reference compound]
24 hour penetration (total micrograms base) [1]: 180 micrograms base

Cc1nccn1C [1-2 DIMETHYL IMIDAZOLE, 1,2-dimethylimidazole]
24 hour penetration of tripelennamine HCl (total micrograms base) [1]: 374 micrograms base
Increase in penetration relative to control [1]: 4.3

COc1ccc2c(c1)[C@]13CCCC[C@@H]1[C@H](C2)N(C)CC3 [DEX, DEXTRO[…], HBR, reference compound]
24 hour penetration (total micrograms base) ([1]; B + 2% DEX + 0.5% IPM + 0.5% IMI, Table 3 Study VIII): 360 micrograms base
24 hour penetration (total micrograms base) ([1]; control: 2% of the drug alone in B, Table 3): 124 micrograms base
Increase in penetration relative to control ([1]; multiple of average control determination, B + 2% DEX + 0.5% IPM + 0.5% IMI, Table 3 Study VIII): 2.9

NCCCn1ccnc1 [N-(3-AMINOPROPYL) IMIDAZOLE, N-(3-aminopropyl)imidazole]
24 hour penetration of tripelennamine HCl (total micrograms base) [1]: 457 micrograms base
Increase in penetration relative to control [1]: 2.5

c1ccc2c(CC3=NCCN3)cccc2c1 [NAP, NAPHAZOLINE HCL, reference compound]
24 hour penetration (total micrograms base) [1]: 161 micrograms base
Penetration enhanced by imidazole [1]: 480%

Cc1nccn1Cc1ccccc1 [1-BENZYL-2-METHYL IMIDAZOLE]
24 hour penetration of tripelennamine HCl (total micrograms base) [1]: 463 micrograms base
Increase in penetration relative to control [1]: 1.8

CC(C)Cc1ccc(C(C)C(=O)O)cc1 (centres unmarked) [IBU, IBUPROFEN, reference compound]
24 hour penetration (total micrograms base) ([1]; B + 5% drug + 0.5% imidazole (IMI), Table 3): 378.0 micrograms base
24 hour penetration (total micrograms base) ([1]; control: 5% of the drug alone in B, Table 3): 181.5 micrograms base
Increase in penetration relative to control ([1]; multiple of average control determination, B + 5% drug + 0.5% IMI, Table 3): 2.1

NNC(=O)c1c[nH]cn1 [4-CARBOXYLIC ACID HYDRAZIDE IMIDAZOLE]
24 hour penetration of tripelennamine HCl (total micrograms base) [1, 3]: 143 micrograms base
Increase in penetration relative to control [1, 4]: 1.7

CNC[C@H](O)c1cccc(O)c1 [PHE, PHENYLEPHRINE HCL, reference compound]
24 hour penetration (total micrograms base) [1]: 266 micrograms base

CC(=O)Oc1ccccc1C(=O)O [ASA, ASPIRIN, reference compound]
24 hour penetration (total micrograms base) [1]: 87.5 micrograms base

c1ccc(Cn2ccnc2)cc1 [1-BENZYL IMIDAZOLE]
24 hour penetration of tripelennamine HCl (total micrograms base) [1, 3]: 277 micrograms base
Increase in penetration relative to control [1, 4]: 1.1

CCC(=O)n1ccnc1 [N-PROPIONYL IMIDAZOLE]
24 hour penetration of tripelennamine HCl (total micrograms base) [1]: 453 micrograms base
Increase in penetration relative to control [1]: 2.5

O=[N+]([O-])c1c[nH]cn1 [4-NITRO IMIDAZOLE]
24 hour penetration of tripelennamine HCl (total micrograms base) [1]: 142 micrograms base
Increase in penetration relative to control [1]: 1.2

CCCCCCCCCCCCCCCCCc1ncc[nH]1 [2-[…]]
24 hour penetration of tripelennamine HCl (total micrograms base) [1, 3]: 358 micrograms base
Increase in penetration relative to control [1, 4]: 1.5

c1ccc(-c2ncc[nH]2)cc1 [2-PHENYL IMIDAZOLE]
24 hour penetration of tripelennamine HCl (total micrograms base) [1, 3]: 435 micrograms base
Increase in penetration relative to control [1, 4]: 1.7

c1ccc(-c2c[nH]cn2)cc1 [4-PHENYL IMIDAZOLE]
24 hour penetration of tripelennamine HCl (total micrograms base) [1, 3]: 368 micrograms base
Increase in penetration relative to control [1, 4]: 3.0
